# Data from patent US4629737A, “Secondary amines and use in pharmaceutical compositions” (Beecham Group p.l.c., priority 1982, dated 1986).
# Where a name gives a salt, the structure may show the parent alone. Read-outs that look alike come from different tables or passages of the source.
# Tests used:
# rat ear = assay: Topical anti-inflammatory activity, croton oil induced rat ear inflammation; assay type: in vivo; details: 1.00 mg/rat ear; 6 h; shown by significant (5% level) reduction in ear weight vs non-drug treated control
# Experimental: The method used is based on that described by G. Tonelli et al (Endocrinology, 77, 625-634, 1965). An inflammation is induced in the rat ear by the application of 50 μl of a 1% solution of croton oil in tetrahydrofuran, test compounds being dissolved in the irritant vehicle. After 6 hours the inflammation is assessed by killing the animals and weighing the ears. Topical anti-inflammatory activity of a compound is generally considered to be shown when a significant (5% level) reduction in ear weight is seen compared to non-drug treated control.
# left atrium = assay: Isolated rat atria screen: tension of electrically paced left atrium; set-up: species or system Sprague-Dawley male rats
# Experimental: (§1) Sprague-Dawley male rats (300-400 g) are killed and the right and left atria dissected out independently and mounted on a combined tissue holder/electrode. The tissues are then immersed in a glass bath containing Krebs solution maintained at 32° C. The rate of the spontaneously beating right atrium (via an isometric transducer and a ratemeter) and the tension of the electrically paced left atrium (via an isometric transducer) are recorded on an M19 chart recorder.
# (§2) After an initial stabilization period, the tissues are exposed to a maximal concentration of isoprenaline (10^-7 M). The tissues are then washed several times until rate and tension return to baseline level. A dose-response curve to the test compound is then carried out.
# (§3) Responses to each concentration of test compound are expressed as a percentage of the maximal responses to isoprenaline. Results are given in the form of (a) intrinsic activity (i.a.) (maximal effect of test compound with respect to isoprenaline maximum, i.e. isoprenaline intrinsic activity=1) and (b) EC50 (the molar concentration at which the test compound produces 50% of its own maximum response).
# [1] = test system: platelet aggregation in human whole blood; assay: Collagen-induced platelet aggregation in human whole blood in vitro; assay type: cell-based; details: 3 mins pre-incubation
# Experimental: Collagen-induced platelet aggregation in human whole blood in vitro.
# Collagen added to stirred citrated blood causes platelet aggregation. As the platelets aggregate, the concentration of single platelets falls. […] Inhibitors of aggregation, such as aspirin and dipyridamole, reduce the response to collagen.
# Blood drawn from volunteers who denied taking aspirin within the previous seven days was mixed with 0.1 vol 129 mM trisodium citrate, dispensed into 0.5 ml aliquots and kept at 25° C. Collagen (Hormon-Chemie, Munich) or 154 mM NaCl (control) was added to each aliquot of blood stirred at 1100 rpm in an aggregometer at 37° C. after 3 mins pre-incubation with compound or appropriate solvent. Aggregates were fixed by addition of 0.5 vol 4.5% formaldehyde or 0.05 vol phosphate-buffered glutaraldehyde. Single platelets were counted electronically. Responses, expressed as percent fall in platelet count, were obtained to a range of collagen concentrations. The concentration producing 50% maximal effect (EC50) was estimated from log10 concentration-response curves. Dose-ratios were calculated by dividing the EC50 obtained in the presence of compound under test by the control EC50.
# blood glucose = assay: Hypoglycaemic activity: reduction in area under blood glucose curve after glucose load; assay type: in vivo, Female CFLP mice; details: Mus musculus, read-out: % Reduction in area under Blood Glucose Curve
# How it was run: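 Female CFLP mice (~25 g, 24 h fasted, n=6) dosed orally with aqueous compound; water controls. Glucose 1 g/Kg s.c. given 30 min later, tail blood glucose sampled every 30 min for 120 min. Activity defined as significant (P<0.05) reduction versus controls; 2 h glucose AUC compared with controls.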
# right atrium = assay: Isolated rat atria screen: rate of spontaneously beating right atrium; set-up: species or system Sprague-Dawley male rats; details: maximal effect relative to isoprenaline maximum (=1), read-out: Rate i.a. (intrinsic activity)
# Experimental: as §1, §2, §3
# [2] = Effect on energy expenditure of mice; assay type: in vivo, Female CFLP mice; details: Mus musculus; for response vs control in vivo at 21.4 mg/kg: po; for response vs control in vivo at 23.9 mg/kg: 23.9 mg/kg po
# How it was run: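 Female CFLP mice (~24 g, fed ad lib; n=12 per group) dosed orally with compound as the hydrochloride (1 mol HCl per mol) in water, vehicle controls receiving water. Energy expenditure over 21 h post-dose calculated from outflow air volume and oxygen content by the Weir method.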
SMILES,Topical anti-inflammatory ACTIVITY (rat ear),EC50 (left atrium; concentration producing 50% of its own maximum response),"Emax (left atrium; maximal effect relative to isoprenaline maximum (=1), read-out: Tension i.a. (intrinsic activity))",DOSE RATIO (EC50 of collagen with compound / control EC50) ([1]; final concentration in whole blood 300 μM),"inhibition in vivo at 0.25 µmol/kg (blood glucose; po, 2 h)",Emax (right atrium),"response vs control in vivo at 21.4 mg/kg ([2]; 3 h, read-out: Mean Energy Expenditure (0-3 h))","response vs control in vivo at 21.4 mg/kg ([2]; 21 h, read-out: Mean Energy Expenditure (0-21 h))",DOSE RATIO (EC50 of collagen with compound / control EC50) ([1]; final concentration in whole blood 100 μM),"inhibition in vivo at 25 µmol/kg (blood glucose; 25 μmol/Kg oral, 2 h after glucose 1 g/Kg s.c., vs control)","response vs control in vivo at 23.9 mg/kg ([2]; 0-3 h, read-out: Mean Energy Expenditure (0-3 h))","response vs control in vivo at 23.9 mg/kg ([2]; 0-21 h, read-out: Mean Energy Expenditure (0-21 h))"
"COC(=O)COc1ccc(CC(C)NCC(OC)c2cccc(Cl)c2)cc1.Cl (stereo not shown) [Example 1, N-[2-(4-Carbomethoxymethoxyphenyl)-1-methylethyl]-2-methoxy-2-(3-chlorophenyl)ethanamine hydrochloride]",Active,30 µM,30%,6.9,47%,0%,151%,138%,–,–,–,–
"CCCOC(CNC(C)Cc1ccc(OCCNC)cc1)c1cccc(Cl)c1 (stereo not shown) [Example 29, N-[2-(4-(2-Methylaminoethoxy)phenyl)-1-methylethyl]-2-^n propoxy-2-(3-chlorophenyl)ethanamine dihydrochloride]",Active,–,–,–,–,–,–,–,10.8,43%,144%,118%
